Experimental data published in publication PMC5540879 (Molecular cancer research : MCR, 2017).

Target: T1, OATP1B3 (Homo sapiens, UniProt Q9NPD5)
T1 sequence (Q9NPD5 1-702): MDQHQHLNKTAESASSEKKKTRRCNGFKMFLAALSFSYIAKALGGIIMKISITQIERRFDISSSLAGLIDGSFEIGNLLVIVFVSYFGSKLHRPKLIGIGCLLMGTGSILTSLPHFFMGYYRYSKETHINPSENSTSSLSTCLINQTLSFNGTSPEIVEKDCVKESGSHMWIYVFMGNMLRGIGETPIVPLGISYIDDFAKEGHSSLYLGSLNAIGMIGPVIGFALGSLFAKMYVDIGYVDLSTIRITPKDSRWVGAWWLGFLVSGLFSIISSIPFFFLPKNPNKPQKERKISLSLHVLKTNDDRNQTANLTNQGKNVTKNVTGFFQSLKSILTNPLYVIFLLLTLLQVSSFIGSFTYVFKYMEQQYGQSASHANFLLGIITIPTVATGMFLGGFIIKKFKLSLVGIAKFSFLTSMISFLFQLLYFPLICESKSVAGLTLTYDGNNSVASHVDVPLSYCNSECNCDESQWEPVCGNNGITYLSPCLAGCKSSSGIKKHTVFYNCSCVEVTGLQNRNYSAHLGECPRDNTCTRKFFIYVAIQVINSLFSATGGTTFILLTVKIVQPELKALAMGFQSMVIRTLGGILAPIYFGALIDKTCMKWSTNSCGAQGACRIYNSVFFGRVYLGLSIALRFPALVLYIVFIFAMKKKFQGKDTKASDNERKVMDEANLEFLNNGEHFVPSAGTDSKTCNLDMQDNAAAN
Test: radiolabeled uptake kinetics
Assay type: cell-based
Conditions: oatp1b3-cho cells

| SMILES | Km |
| --- | --- |
| C[C@]12CCC(=O)C[C@@H]1CC[C@@H]1[C@@H]2CC[C@]2(C)[C@@H](O)CC[C@@H]12 [DHT] | 30.4 ± 9.3 µM |
| C[C@]12CCC(=O)C=C1CC[C@@H]1[C@@H]2CC[C@]2(C)C(=O)CC[C@@H]12 [androstenedione, 4-androstene-3,17-dione] | 31.7 ± 9.5 µM |
| C[C@]12CC[C@H]3[C@@H](CCC4=CC(=O)CC[C@@]43C)[C@@H]1CC[C@@H]2O [testosterone] | 23.2 ± 3.9 µM |
